According to PMC6154636, “Using UPLC-MS/MS for Characterization of Active Components in Extracts of Yupingfeng and Application to a Comparative Pharmacokinetic Study in Rat Plasma after Oral Administration” (Molecules : A Journal of Synthetic Chemistry and Natural …, 2017):
Read-outs that look alike come from different tables or passages of the source.

Legend:
[1] = Stability of the seven analytes in rat plasma (method validation); assay type: in vitro ADME; details: n = 6; for Short-Term RSD: auto-sampler vials for 24 h; for Freeze-Thaw RSD: three freeze–thaw cycles; for Long-Term RSD: −20 °C for 30 days
Protocol: Stability The short-term and long-term stability of seven analytes in rat plasma in auto-sampler vials for 24 h, at −20 °C for 30 days and after three freeze–thaw cycles was assessed, and also carried out in six replicates samples at three QC levels (low, medium and high).
Stability: The analytes would be considered stable when the accuracy bias was within ±15% of the nominal concentrations (or ±20% for LLOQ).

[2] = Pharmacokinetic study in rats after oral administration of mix standard solution (UPLC-QqQ-MS of plasma); assay type: in vivo, Sprague-Dawley rats
Protocol: Then, 300 μL acetonitrile for protein precipitation were added. For the incurred samples, 10 µL of methanol (volume of the corresponding standard solution for calibration curve) and 90 μL of samples with 300 μL acetonitrile were mixed, the mixture was then vortex-extracted for 2 min, and centrifuged for 10 min at 15,000 rpm (4 °C). The supernatant was transferred to a new tube and evaporated under a gentle stream of nitrogen to dryness. The residue was reconstituted with 80 μL of initial mobile phase, vortex-mixed for 1 min and centrifuged at 15,000 rpm for 5 min.
The Chromatographic UPLC-QqQ-MS procedure of pharmacokinetics study was performed using ACQUITY UPLC (Waters, Milford, MA, USA) and SCIEX SelexION Triple Quad™ 5500 System (AB Sciex, Framingham, MA, USA) equipped with a heated electrospray ionization source (ESI) interface, separation was achieved using a Waters BEH C18 column (2.1 mm × 100 mm, 1.7 μm) which was protected by an online filter, the mobile phase was at a flow rate of 0.5 mL/min, consisted of aqueous solvent A: water–acetic acid (1000:1, v/v) and organic phase solvent B: acetonitrile. A 10-min binary gradient elution was performed for the separation, and the consecutive program was as follows: an isocratic elution of 5% solvent B to equilibrate the column, then followed by a linear gradient elution: 0–2.5 min, 5–27% B; 2.5–3.1 min, 27–36% B; 3.1–4.1 min, 36–57% B; 4.1–4.8 min, 57–84% B; 4.8–5.8 min, 84–100% B; 5.8–7 min, 100–100% B; 7–8 min, 100–5% B; and the re-equilibration time of gradient elution was 2 min. The column and auto-sampler tray temperature were maintained constantly at 45 °C and 4 °C, respectively. The injection volume was 10 μL. The electrospray ionization source was operated in positive mode. Quantitation was performed by schedule multiple reactions monitoring (sMRM). In the positive mode, the tandem mass spectrometry (MS/MS) typical instrumental conditions were: ion spray voltage 5.5 kV, ion source gas 150 psi, ion source gas 250 psi, temperature 500 °C, and curtain gas 38 psi. Data acquisition and processing were performed using Analyst Software (AB Sciex, Corp., Framingham, MA, USA).
The developed UPLC-QqQ-MS method was applied to a pharmacokinetic study of seven analytes in rat plasma. Male healthy adult Sprague-Dawley rats (n = 6, 200 ± 20 g body weight) were supplied by Shanghai Jiao Tong University Laboratory Animal Centre (Shanghai, China). Animals were acclimatized in an environmental controlled breeding room with standard laboratory food and water for one week prior to the experiments. All the rats were fasted for 12 h, with free access to water prior to the experiments, animal welfare and experimental procedures conformed to guidance for the care and use of laboratory animals, similarly the ethical regulations of SJTU.
Then immediately centrifuged at 4000 rpm for 5 minutes, plasma was transferred into another via and stored at −80 °C until assay.
The plasma concentrations of seven analytes at different time points are described as the mean ± s.d. The concentration versus time curve was plotted. Compartmental model was chosen to calculate all the related pharmacokinetic parameters including Cmax (ng/mL), Tmax (h), AUC0−∞ (ng·h/mL), CL/F (L/h.kg), T1/2α (h) and T1/2β (h) were calculated by Kinetica4.4 software (Thermo Fisher Scientific™, Corp., Waltham, MA, USA), and performed with GraphPad 6 (GraphPad Software, Inc., La Jolla, CA, USA). We also use the area under the plasma concentration–time curve from zero to infinity (AUC0−∞) as the weighting factor to make an integrated pharmacokinetic curve. […]

[3] = cited from earlier work
[4] = high QC level (80.0 or 150 ng/mL)
[5] = low QC level (0.25, 0.50 or 1.50 ng/mL)
[6] = medium QC level (1.50, 3.50 or 15.0 ng/mL)
[7] = male, Sprague-Dawley, rat, in vivo, po, 10 mg/kg
[8] = after oral administration (10 mg/kg)
[9] = male, Sprague-Dawley, rat, in vivo, po, 10 mg/kg, rats, oral 10 mg/kg mix standard in 0.5% CMC-Na, n = 6, Mean ± S.D., read-out: Tmax
[10] = male, Sprague-Dawley, rat, in vivo, Table 8, mean, after oral administration (10 mg/kg), read-out: AUC0−∞
[11] = male, Sprague-Dawley, rat, in vivo, rats, oral 10 mg/kg mix standard in 0.5% CMC-Na, n = 6, Mean ± S.D., compartmental model, read-out: Cmax
[12] = male, Sprague-Dawley, rat, in vivo, rats, oral 10 mg/kg mix standard in 0.5% CMC-Na, n = 6, Mean ± S.D., read-out: CL/F (converted)
[13] = male, Sprague-Dawley, rat, in vivo, rats, oral 10 mg/kg mix standard in 0.5% CMC-Na, n = 6, Mean ± S.D., read-out: T1/2β (converted)
[14] = rats, oral 10 mg/kg mix standard in 0.5% CMC-Na, n = 6, Mean ± S.D., 10 mg/kg

SMILES	Short-Term RSD [1, 4] [%]	Short-Term RSD [1, 5] [%]	Short-Term RSD [1, 6] [%]	Freeze-Thaw RSD [1, 4] [%]	Freeze-Thaw RSD [1, 5] [%]	Freeze-Thaw RSD [1, 6] [%]	Long-Term RSD [1, 4] [%]	Long-Term RSD [1, 5] [%]	Long-Term RSD [1, 6] [%]	AUC(0-inf) [2, 7] [ng·h/mL]	CL/F [2, 7] [mL/min/kg]	Cmax [2, 7] [ng/mL]	T1/2α [2, 7] [h]	Tmax [2, 7] [h]	half-life [2, 7] [h]	weighting coefficient ωj (AUC0−∞ of single analyte / total AUC0−∞ of analytes) [2, 7]	weighting coefficient ωj (AUC0−∞ of single analyte / total AUC0−∞ of analytes) [2, 8]	Tmax [2, 9] [h]	AUC(0-inf) [2, 10] [ng·h/mL]	Cmax [2, 11] [ng/mL]	further results
C=C1CCC[C@]2(C)C[C@@H]3OC(=O)C(C)=C3C[C@@H]12 [Atractylenolide II]	–	–	–	–	–	–	–	–	–	17.9	9820	8.4 ± 2.4	0.04 ± 0.01	0.1 ± 0.1	4.1 ± 1.56	0.025	–	–	–	–	biliary excretion [3]: rapid; intestinal absorption [3]: poor
CC(C)(O)C1CCC(C)(C2C(O)CC3(C)C4CC(OC5OC(CO)C(O)C(O)C5O)C5C(C)(C)C(OC6OCC(O)C(O)C6O)CCC56CC46CCC23C)O1 (stereo not shown) [Astragaloside]	1.45	7.06	1.06	11.51	3.65	3.20	2.80	3.36	8.08	–	–	–	–	–	–	–	0.269	2.8 ± 0.1	191	26.6 ± 4	CL/F [2, 12]: 832 mL/min/kg; half-life [2, 13]: 2.06 ± 0.04 h; T1/2α ([2]; rats, oral 10 mg/kg mix standard in 0.5% CMC-Na, n = 6, Mean ± S.D.): 1.98 ± 0.11 h; bioavailability ([3]; stated as a known characteristic, no reference given): low
Cc1cc(=O)c2c(O)c3c(cc2o1)OC(C)(C)[C@@H](O[C@@H]1O[C@H](CO)[C@@H](O)[C@H](O)[C@H]1O)C3 [Sec-O-Glucosylhamaudol]	1.01	2.75	1.40	9.64	4.77	3.73	1.46	3.70	3.11	–	–	–	–	–	–	–	–	–	–	–	T1/2α ([2]; rat, in vivo, po, 10 mg/kg): 1.10 ± 0.26 h; T1/2β ([2]; rat, in vivo, po, 10 mg/kg): 2.4 ± 1.2 min; weighting coefficient ωj (AUC0−∞ of single analyte / total AUC0−∞ of analytes) ([2]; rat, in vivo, po, 10 mg/kg): 0.379
COc1ccc(-c2coc3cc(O)ccc3c2=O)cc1 [Formononetin]	2.82	2.35	2.33	10.58	10.06	7.09	6.22	5.96	7.75	–	–	–	–	–	–	–	0.159	1.65	113	13.9 ± 4.2	CL/F [2, 12]: 1530 mL/min/kg; half-life [2, 13]: 4.1 ± 2.6 h; T1/2α [2, 14]: 1.77 ± 0.81 h; Tmax [2, 14]: 1.6 ± 0.9 h; T1/2α ([2]; rats, oral 10 mg/kg mix standard in 0.5% CMC-Na, n = 6, Mean ± S.D., listed as formononetin, 10 mg/kg): 1.77 h

Second part, led by results:

Short-Term RSD [1, 4] [%]	Short-Term RSD [1, 5] [%]	Short-Term RSD [1, 6] [%]	Freeze-Thaw RSD [1, 4] [%]	Freeze-Thaw RSD [1, 5] [%]	Freeze-Thaw RSD [1, 6] [%]	Long-Term RSD [1, 4] [%]	Long-Term RSD [1, 5] [%]	Long-Term RSD [1, 6] [%]	AUC(0-inf) [2, 7] [ng·h/mL]	CL/F [2, 7] [mL/min/kg]	Cmax [2, 7] [ng/mL]	T1/2α [2, 7] [h]	Tmax [2, 7] [h]	half-life [2, 7] [h]	weighting coefficient ωj (AUC0−∞ of single analyte / total AUC0−∞ of analytes) [2, 7]	SMILES	weighting coefficient ωj (AUC0−∞ of single analyte / total AUC0−∞ of analytes) [2, 8]	Tmax [2, 9] [h]	AUC(0-inf) [2, 10] [ng·h/mL]	Cmax [2, 11] [ng/mL]	further results
4.38	4.18	2.20	12.92	8.29	6.08	12.67	4.13	10.35	11.5	8330	6.3 ± 2.5	0.27 ± 0.10	0.3 ± 0.1	1.09 ± 0.36	0.016	COc1ccc(-c2coc3cc(O)ccc3c2=O)cc1O [Calycosin]	–	–	–	–	–
1.02	3.89	1.35	8.53	2.40	1.40	2.41	3.99	7.52	60.8	2810	50 ± 7.6	0.16 ± 0.01	0.2 ± 0.01	2.4 ± 1.1	0.085	COc1c2c(cc3oc(C)cc(=O)c13)OC(C(C)(C)OC1OC(CO)C(O)C(O)C1O)C2 [4-O-beta-D-glucosyl-5-O-methylvisamminol]	–	–	–	–	–
